As to `Cc1cc(CC(C(=O)NCc2ccc3occc3c2)C(=O)N(CC(C)C)CC(C)C)n(C)n1` (stereo not shown) [Cmpd. 9], the melting point (commonly the temperature of the solid-liquid transition) fell in the range of 85.5 to 86 °C.

The record behind these values is patent US9540354B2, “Diamide inhibitors of cytochrome P450” (SEQUOIA PHARMACEUTICALS, INC., priority 2008, dated 2017).
